Where “and” joins values, the source holds several entries; their conditions need not be identical. Equal entries are not always repeated. Where two headings read alike, the source gives them in different places. One block for each molecule: values may come before it.
Legend:
[1] = taken from Fujita et al. (1964); cited from earlier work
MAO = MAO activity assay (membrane fraction of hamster liver mitochondria lysate); assay type: biochemical; settings: for IC50: read-out: MAO inhibition IC50
Experimental: (§1) Several of the synthesized compounds were tested for MAO and ALDH-2 suppression activity. The membrane and supernatant fractions of the lysate of a gradient purified hamster liver mitochondria preparation were used as sources of MAO and ALDH-2, respectively. ALDH-2 and MAO activity assays were performed according to established procedures (Rooke et al. (2000) J. Med. Chem. 43:4169).

golden hamsters = assay: Ethanol drinking experiments, two-bottle choice; assay type: in vivo; settings: 0.07 mmol/day/hamster for 5 consecutive days
Experimental: Effects of the newly synthesized analogs on hamster ethanol intake were determined according to the method described below. Animals were male adult golden hamsters (outbred, Lakeview Lak: LVG[SYR]), purchased from Charles River Laboratories, Wilmington, Mass. 01887 or Harlan Sprague Dawley, Inc., Indianapolis, Ind. 46229. Upon arrival, hamsters were housed in a room maintained at 23° C., 35-45% humidity, with a 12/12 hr light/dark cycle (light on 0600-1800 hr), ad libitum access to Purina Chow (5001) and a 15% v/v ethanol solution. After a week, each hamster was transferred to an individual stainless steel cage (26×18×17.5 cm). Two 50 ml drinking bottles, one containing water and the other a 15% ethanol solution, were provided continuously. The bottles were placed in holders equipped with tilted platforms which direct spillage to tubes placed outside of the cages. The positions of the two drinking bottles on each cage were altered daily to prevent development of positional preference. Fluid intake was measured at 0900 hr each day. Hamsters that drank significant (>8 ml/day) and consistent (daily variance <±20%) amounts of ethanol solution were selected for testing. To establish baseline ethanol and water intake, 1 ml sterile saline was administered daily to each hamster between 1500-1600 hr for 6 days (saline control period, Day 1 to Day 6). A daily dose of 0.07 mmol of test compound was then administered for 5 consecutive days (treatment period, Day 7 to Day 11). After the last dose, ethanol and water intake were monitored for another 6 days (post treatment period, Day 12 to Day 17). […] At an equivalent dose, daidzin suppressed ethanol intake by about 55% (Table 1).

ALDH-2 = molecular target: T1, ALDH-2 (Mesocricetus auratus, UniProt P81178); assay: ALDH-2 activity assay (supernatant of hamster liver mitochondria lysate); assay type: biochemical; settings: for IC50: read-out: ALDH-2 inhibition IC50
T1 construct: membrane and supernatant fractions of the lysate of a gradient purified hamster liver mitochondria preparation; from tissue; host or cells: hamster liver mitochondria, supernatant fraction of the lysate
T1 sequence (P81178 20-519): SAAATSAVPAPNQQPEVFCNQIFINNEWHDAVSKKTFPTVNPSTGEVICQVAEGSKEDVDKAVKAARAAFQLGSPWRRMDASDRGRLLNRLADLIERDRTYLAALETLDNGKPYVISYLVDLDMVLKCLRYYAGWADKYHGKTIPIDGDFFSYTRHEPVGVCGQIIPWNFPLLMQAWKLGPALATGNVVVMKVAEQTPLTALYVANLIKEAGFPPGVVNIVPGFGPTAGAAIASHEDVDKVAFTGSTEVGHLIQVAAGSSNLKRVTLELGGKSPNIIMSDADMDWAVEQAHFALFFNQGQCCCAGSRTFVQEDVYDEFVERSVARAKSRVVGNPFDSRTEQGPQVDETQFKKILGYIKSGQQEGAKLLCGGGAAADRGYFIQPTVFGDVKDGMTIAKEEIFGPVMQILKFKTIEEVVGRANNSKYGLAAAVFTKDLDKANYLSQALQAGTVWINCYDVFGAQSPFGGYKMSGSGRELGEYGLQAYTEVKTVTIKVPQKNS
Experimental: as §1

[2] = system: 5-HT metabolism in brain slices; assay: 5-HT metabolism in hamster brain slices; assay type: cell-based
Excerpt: (§2) The effects of daidzin on monoamine metabolism were studied in hamster and rat liver and brain using tissue slices using 5-HT as the substrate. The effects of ethanol drinking on 5-HT metabolism in hamster liver and brain were examined. Freshly removed tissues were cut into small pieces (about 1 mm cubes) with a tissue-slicer, suspended in ice-cold phosphate buffered saline (PBS) (0.1 g/ml), and forced through a mesh 40 stainless steel screen mounted on a Millipore Swinnex Filter Holder. The minced tissues were allowed to sediment on ice before PBS was removed using a Pasteur pipette. The tissue slices were washed 5 more times each with 10 volumes of ice-cold PBS. After the final wash, tissues were suspended in 1 volume of PBS and dispensed using a micro-pipette with tips of i.d.=2 mm. 5-HT metabolism catalyzed by the tissue slices was assayed in a 1 ml assay medium containing PBS, 1 μM 5-HT, 100:1 tissue slices, and specified concentrations of daidzin or ethanol. Reactions were initiated by the addition of tissues and allowed to proceed for 30 min at 37° C. in a shaking water bath. Reactions were terminated by addition of 0.1 ml ice-cold 1 M HClO4, and 10 mM EDTA. […] Contents of 5-HT, 5-HIAL, 5-HTOL and 5-HIAA in the supernatants were analyzed by HPLC as described before (Rooke et al. (2000) J. Med. Chem. 43:4169).

[3] = system: 5-HT metabolism in brain slices; assay: 5-HT metabolism in rat brain slices; assay type: cell-based
Excerpt: as §2

[4] = system: Syrian golden hamsters (Meso cricetus auratus); assay: Oral potency: compound mixed in chow, two-bottle free-choice ethanol intake; assay type: in vivo; settings: for Ethanol intake reduced by: oral
Experimental: The oral potency of hexzein (7-O-ω-carboxypentyldaidzein) in reducing ethanol intake in Syrian golden hamsters (Meso cricetus auratus) was examined under a two-bottle free-choice protocol. Hexzein was mixed with Purina rodent meal (5755M) at 0 mg: 1 g (control), 2 mg: 1 g, 4 mg: 1 g, and 5 mg: 1 g ratios and the mixtures were pressed into 1×1×0.5 inch pellets. Food pellets, ethanol solution and water were provided continuously throughout the study and their intake were measured every day at 5 pm. Hexzein given in this manner did reduce ethanol intake. Ethanol intake in hamsters on 2 mg/g, 4 mg/g, and 5 mg/g hexzein-Chow were reduced by 18.3±3.8%, 47.8±7.4% and 56.5±5.4%, respectively.

[5] = Tissue distribution study, liver of hamsters on compound-Chow; assay type: in vivo, hamster
[6] = system: 5-HT metabolism in hamster liver slices; assay: 5-HT metabolism catalyzed by hamster liver slices; assay type: cell-based
Excerpt: (§3) The effects of daidzin on monoamine metabolism were studied in hamster and rat liver and brain using tissue slices using 5-HT as the substrate. The effects of ethanol drinking on 5-HT metabolism in hamster liver and brain were examined. Freshly removed tissues were cut into small pieces (about 1 mm cubes) with a tissue-slicer, suspended in ice-cold phosphate buffered saline (PBS) (0.1 g/ml), and forced through a mesh 40 stainless steel screen mounted on a Millipore Swinnex Filter Holder. The minced tissues were allowed to sediment on ice before PBS was removed using a Pasteur pipette. The tissue slices were washed 5 more times each with 10 volumes of ice-cold PBS. After the final wash, tissues were suspended in 1 volume of PBS and dispensed using a micro-pipette with tips of i.d.=2 mm. 5-HT metabolism catalyzed by the tissue slices was assayed in a 1 ml assay medium containing PBS, 1 μM 5-HT, 100:1 tissue slices, and specified concentrations of daidzin or ethanol. Reactions were initiated by the addition of tissues and allowed to proceed for 30 min at 37° C. in a shaking water bath. Reactions were terminated by addition of 0.1 ml ice-cold 1 M HClO4, and 10 mM EDTA. Samples were kept on ice for 30 min and centrifuged to obtained clear supernatants. Contents of 5-HT, 5-HIAL, 5-HTOL and 5-HIAA in the supernatants were analyzed by HPLC as described before (Rooke et al. (2000) J. Med. Chem. 43:4169).

[7] = system: 5-HT metabolism in rat liver slices; assay: 5-HT metabolism catalyzed by rat liver slices; assay type: cell-based
Excerpt: as §3

[8] = Urine [5-HTOL]/[5-HIAA] ratio after daidzin administration; assay type: in vivo; settings: dose that would suppress hamster ethanol intake by about 50%
[9] = system: ethanol-preferring Syrian golden hamsters; settings: cited from earlier work
rats = settings: cited from earlier work
[10] = system: isolated hamster liver mitochondria; settings: cited from earlier work
[11] = system: isolated rat liver mitochondria; settings: cited from earlier work

Molecule: 4′-Bromoisoflavone 7-ω-Ethoxycarbonylpentyl Ether [Analog 26]
- π (hydrophobic constant of the 4′-substituent) [1]: 0.86

Molecule: CCO [Ethanol, ethanol]
- Effect on 5-HT metabolism (in words) [2]: did not effect 5-HT metabolism
- Effect on 5-HT metabolism (in words) [3]: did not effect 5-HT metabolism

Molecule: COc1ccc2c(=O)c(-c3ccc(O)cc3)coc2c1 [Analog 2, 7-Methoxy-4′-Hydroxyisoflavone]
- π (hydrophobic constant of the 4′-substituent) [1]: −0.67

Molecule: CCOC(=O)CCCCCOc1ccc2c(=O)c(-c3ccc(F)cc3)coc2c1 [Analog 24, 7-O-Ethoxycarbonylpentyl-4′-Fluoroisoflavone]
- π (hydrophobic constant of the 4′-substituent) [1]: 0.14

Molecule: CCOC(=O)CCCCCOc1ccc2c(=O)c(-c3ccccc3)coc2c1 [Analog 7, 7-O-Ethoxycarbonylpentylisoflavone]
- π (hydrophobic constant of the 4′-substituent) [1]: 0.00

Molecule: CCOC(=O)CCCCCOc1ccc2c(=O)c(-c3ccc(C)cc3)coc2c1 [Analog 30, 7-O-Ethoxycarbonylpentyl-4′-Methylisoflavone]
- π (hydrophobic constant of the 4′-substituent) [1]: 0.56

Molecule: 7-Ethoxycarbonylpentyl-4′-Aminoisoflavone [Analog 33]
- π (hydrophobic constant of the 4′-substituent) [1]: −1.23

Molecule: O=C(O)CCCCCOc1ccc2c(=O)c(-c3ccc(O)cc3)coc2c1 [Hexzein, 7-O-ω-carboxypentyldaidzein]
- Ethanol intake reduced by ([4]; 2 mg/g hexzein-Chow): 18.3±3.8%
- Ethanol intake reduced by ([4]; 4 mg/g hexzein-Chow): 47.8±7.4%
- Ethanol intake reduced by ([4]; 5 mg/g hexzein-Chow): 56.5±5.4%
- Concentration found in the liver (in words) ([5]; hamster, in vivo): pharmacologically relevant concentrations
- EtOH intake suppression, % (golden hamsters): 69 ± 12%

Molecule: Daidzin [Analog 42]
- Effect on ethanol intake (in words) ([4]; oral in chow, similar manner and equivalent dose range): failed to reduce ethanol intake
- Concentration found in the liver (in words) ([5]; hamsters on compound-Chow): no daidzin could be detected
- 5-HT depletion [6]: not 5-HT depletion
- 5-HTOL formation [6]: increases in the formation of 5-HTOL
- 5-HIAA formation ([6]; 1 μM 5-HT, 30 min at 37° C.): inhibited 5-HIAA formation
- 5-HT depletion [7]: not 5-HT depletion
- 5-HTOL formation [7]: increases in the formation of 5-HTOL
- 5-HIAA formation ([7]; 1 μM 5-HT, 30 min at 37° C.): inhibited 5-HIAA formation
- Effect on 5-HT metabolism (in words) [2]: did not effect 5-HT metabolism
- Effect on 5-HT metabolism (in words) [3]: did not effect 5-HT metabolism
- urine [5-HTOL]/[5-HIAA] ratio [8]: increased urine [5-HTOL]/[5-HIAA] ratio
- EtOH intake suppression, % (golden hamsters): about 55%
- Ethanol intake (in words) ([9]; administered orally): does not affect hamster ethanol intake
- Ethanol intake (in words) ([9]; ethanol-preferring Syrian golden hamsters): selectively suppress ethanol intake
- Ethanol intake (in words) (rats): selectively suppress ethanol intake
- Conversion of 5-HT and DA into 5-HIAA and DOPAC [10]: inhibits the conversion of monoamines
- Conversion of 5-HT and DA into 5-HIAA and DOPAC [11]: inhibits the conversion of monoamines

Molecule: CCOC(=O)CCCCCOc1ccc2c(=O)c(-c3ccc([N+](=O)[O-])cc3)coc2c1 [Analog 28, 7-O-Ethoxycarbonylpentyl-4′-Nitroisoflavone]
- π (hydrophobic constant of the 4′-substituent) [1]: −0.28

Molecule: COc1ccc2c(=O)c(-c3ccccc3)coc2c1OC [Analog 34]
- ALDH-2 inhibition (in words) (ALDH-2): completely abolished ALDH-2 inhibitory activities
- Potency for MAO inhibition compared with counterpart analogs (in words) (MAO): substantially decreased potencies for MAO inhibition

Molecule: COc1ccc2c(=O)c(-c3ccccc3)coc2c1 [Analog 3, 7-Methoxyisoflavone]
- π (hydrophobic constant of the 4′-substituent) [1]: 0.00

Further lines, with some results ahead:

- IC50 (MAO): 9 µM
Molecule: Cc1ccc(-c2coc3cc(O)ccc3c2=O)cc1 [Analog 29]

- IC50 (MAO): 12 µM
Molecule: O=c1c(-c2ccc(O)cc2)coc2cc(O)ccc12 [Analog 40]
- EtOH intake suppression, % (golden hamsters): 22 ± 5%

- IC50 (ALDH-2): 0.14 to 8 µM
Molecule: O=C1c2ccccc2C(=O)N1CCCCOc1ccc2c(=O)c(-c3ccccc3)coc2c1 [Analog 14]
- MAO inhibition (in words) (MAO): none of the 4′-H series (analogs 3, 5, 7, 9, 12 and 14) had any effect on MAO
- EtOH intake suppression, % (golden hamsters): 37 ± 3%

- melting point: 213 to 214 °C
Molecule: CCOC(=O)c1oc2cc(O)ccc2c(=O)c1-c1ccccc1 [Analog 20, 2-Ethoxycarbonyl-7-Hydroxyisoflavone]

- IC50 (ALDH-2): 0.14 to 8 µM
Molecule: CC(=O)Oc1ccc2c(=O)c(-c3ccccc3)coc2c1 [Analog 10]

- ALDH-2 inhibition (in words) (ALDH-2): no effect on ALDH-2 activity
Molecule: CCOC(=O)c1oc2cc(O)ccc2c(=O)c1-c1ccccc1 [Analog 20]

- melting point: 103 to 104 °C
Molecule: CCc1ccc2c(=O)c(-c3ccccc3)coc2c1 [Analog 35, 7-Ethylisoflavone]

- IC50 (MAO): 12 µM and > 9 µM
Molecule: Nc1ccc(-c2coc3cc(O)ccc3c2=O)cc1 [Analog 32]

- IC50 (MAO): 1.5 µM
Molecule: O=c1c(-c2ccc(F)cc2)coc2cc(O)ccc12 [Analog 23]

- melting point: 257 to 258 °C
Molecule: O=C(O)c1oc2cc(O)ccc2c(=O)c1-c1ccccc1 [Analog 21, 2-Carboxy-7-Hydroxyisoflavone]

- melting point: 143 to 144 °C
Molecule: COc1ccc2c(=O)c(-c3ccccc3)coc2c1OC [Analog 34, 7,8-Dimethoxyisoflavone]

- IC50 (MAO): 1 µM
Molecule: O=c1c(-c2ccc(Br)cc2)coc2cc(O)ccc12 [Analog 25]

- IC50 (ALDH-2): 0.14 to 8 µM
Molecule: O=c1c(-c2ccc(O)cc2)coc2cc(OCn3nnc4ccccc43)ccc12 [Analog 18]

- melting point: 266 to 268 °C
Molecule: O=c1c(-c2ccc(Br)cc2)coc2cc(O)ccc12 [Analog 25, 7-Hydroxy-4′-Bromoisoflavone]

- IC50 (MAO): 8.6 µM
Molecule: O=c1c(-c2ccccc2)coc2cc(O)ccc12 [Analog 1]

— patent publication US7368434B2, “Compounds useful for the inhibition of ALDH” (The Endowment for Research in Human Biology, Inc., priority 2002, dated 2008)
